Laboratory results taken from patent EP1954678B1, “NOVEL NK1 AND NK2 ANTAGONISTS” (Abbott Products GmbH, priority 2005, dated 2007).
Read-outs that look alike come from different tables or passages of the source.

Experiments:
human NK2 receptors = molecular target: T1, human NK2 receptors (Homo sapiens, UniProt P21452); assay: Binding of the test substances to NK2 receptors in vitro ([3H]-SR 48968 displacement, CHO cell membranes); conditions: [3H]-SR 48968 as ligand; membranes of CHO cells expressing the human NK2 receptor; 90 min incubation; Ki calculated from IC50; read-out: pKi (NK2) (converted)
T1 construct: expressed in transfected cells; host or cells: CHO cells (membrane preparation)
T1 sequence (P21452 1-398): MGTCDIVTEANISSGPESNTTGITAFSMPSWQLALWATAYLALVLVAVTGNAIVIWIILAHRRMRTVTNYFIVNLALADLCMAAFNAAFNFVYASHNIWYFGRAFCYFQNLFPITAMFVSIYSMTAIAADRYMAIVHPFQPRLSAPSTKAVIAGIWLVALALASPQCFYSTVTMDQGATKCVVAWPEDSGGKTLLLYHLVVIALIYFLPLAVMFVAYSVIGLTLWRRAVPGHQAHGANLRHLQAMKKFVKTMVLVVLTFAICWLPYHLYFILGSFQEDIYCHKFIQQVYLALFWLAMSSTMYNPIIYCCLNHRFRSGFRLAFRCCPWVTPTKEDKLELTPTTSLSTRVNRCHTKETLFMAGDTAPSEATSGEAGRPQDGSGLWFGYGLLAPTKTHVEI
Protocol: The affinity of the test substances to human NK2 receptors was measured in vitro. The ability of the test substances to displace the selective NK2 receptor antagonist SR 48968 (= saredutant) used as reference ligand from its corresponding bond was determined.
The receptor binding studies were carried out with radioactively marked [^3H]-SR 48968 (from Amersham) as ligand. For the binding test, different samples of a membrane preparation of CHO cells (= egg cells of the Chinese hamster, Chinese hamster oocytes), which express the human NK2 receptor (for preparation, see N.P. Gerard et al., Journal of Biological Chemistry 265/33 (1990) 20455-20462), were incubated for 90 minutes (= min.) with a solution of the marked ligand, with the incubation mixtures containing no test substance or additions of different concentrations of test substance. Then in each case the membrane-bound ligands in the samples were separated from free ligands by filtration. The fraction remaining in the filter was washed several times with buffer solution, before its radioactivity was measured using a liquid scintillation counter. That concentration which effects half-maximum displacement of the bound reference ligand was determined as IC50 of the respective test substance. The inhibition constant (Ki value) of the test substance was calculated from the respective IC50 value, and was stated as the negative logarithmised value thereof (pKi).
If several measurements were performed, the average thereof was listed each time. The pKi value is a measurement of the affinity of the test substances to human NK2 receptors.

human NK1 receptors = molecular target: T2, human NK1 receptors (Homo sapiens, UniProt P25103); assay: Binding of the test substances to NK1 receptors in vitro ([3H]-Substance P displacement, CHO cell membranes); conditions: [3H]-Substance P as ligand; membranes of CHO cells expressing the human NK1 receptor; Ki calculated from IC50; read-out: pKi (NK1) (converted)
T2 construct: expressed in transfected cells; host or cells: CHO cells (membrane preparation)
Protocol: In The Netherlands, the affinity of the test substances to human NK1 receptors was measured in vitro.
The receptor binding studies were performed with [^3H]-Substance P as ligand. For the binding test, different samples of a membrane preparation of CHO cells (= egg cells of the Chinese hamster, Chinese hamster oocytes), which express the human NK1 receptor ("Accession Number" of the associated nucleic acid sequence = M74290; "Accession Number" of the associated protein sequence = P25103; cf. Takeda, Y.; Chou, K. B., Takeda, J.; Sachais, B.S. and Krause, J. E; Biochemical and Biophysical Research Communications, 179(3) (1991) 1232 - 1240), were incubated with a solution of the marked ligand, with the incubation mixtures containing no test substance or additions of different concentrations of test substance. Then, separation of bound and free ligands was performed in each of the samples with the aid of glass-fibre filtration. The fraction remaining in the filter was washed several times with buffer solution and then the radioactivity of the fraction remaining in the filter was measured using a beta scintillation counter.
For the compounds of Examples 1 to 14, that concentration which effects half maximum displacement of the bound ligand was determined as IC50 of the respective test substance. From this, the corresponding inhibition constant (Ki value) of the test substance was calculated, and was stated as the negative common logarithm of the Ki value (= pKi value). The pKi value is a measurement of the affinity of the test substances to human NK1 receptors.

NK1 receptors [1] = molecular target: T3, NK1 receptors (Cavia porcellus, UniProt P30547); assay: Functional NK1 antagonism on isolated guinea pig aorta ring preparations (Substance P induced relaxation); design: from tissue; host or cells: guinea pig aorta ring preparations; species or system Pirbright-White guinea pigs
Protocol: In The Netherlands, the action antagonistic to NK1 receptors of the test substances was measured in vitro on isolated ring preparations, kept in an oxygenated nutrient solution, of the aortas of Pirbright-White guinea pigs.
In order to measure the contraction of the vessel muscles, the preparations were fixed to a hook, joined by a thread to a force measuring apparatus and the contractions were recorded in each case on a plotter. The aorta preparations were tonicised with phenylephrine. […] The relaxations before and after the administration of the test substance were quantified in percent. The effective concentration of the half maximum inhibition of the relaxation of the tone (= EC50) was calculated. The negative common logarithm of the EC50 value (= pEC50) was given as characteristic variable. The pEC50 value is a measurement of the functional effectiveness of the test substances on NK1 receptors.

NK2 receptors [2] = molecular target: T4, NK2 receptors (Cavia porcellus, UniProt Q64077); assay: Functional NK2 antagonism on isolated guinea pig gall-bladder preparations (NKA induced contraction); design: from tissue; host or cells: guinea pig gall-bladder preparations; species or system Pirbright-White guinea pigs
T4 sequence (Q64077 1-402): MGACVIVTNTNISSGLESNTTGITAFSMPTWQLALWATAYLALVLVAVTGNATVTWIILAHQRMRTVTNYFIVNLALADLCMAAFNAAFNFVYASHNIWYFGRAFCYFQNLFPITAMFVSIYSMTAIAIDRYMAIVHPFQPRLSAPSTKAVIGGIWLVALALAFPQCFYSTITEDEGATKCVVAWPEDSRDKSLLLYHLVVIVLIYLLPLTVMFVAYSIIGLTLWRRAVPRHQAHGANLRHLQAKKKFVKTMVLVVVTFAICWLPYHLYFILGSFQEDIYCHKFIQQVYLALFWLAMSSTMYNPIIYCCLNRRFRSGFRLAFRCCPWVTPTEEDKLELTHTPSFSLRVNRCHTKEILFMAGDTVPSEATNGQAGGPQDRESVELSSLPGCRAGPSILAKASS
Protocol: The NK2 receptor-antagonising action of the test substances was determined on isolated gall-bladder preparations from Pirbright-White guinea pigs, held in an oxygen-saturated nutrient solution. To this end, the preparations were fastened on one hand in the nutrient solution to organ holders and on the other hand on a force meter by a thread.
The concentration of the test substances was increased iteratively in the subsequent experiments as a function of the result in logarithmic whole or half steps, until at least one concentration above or below 50% inhibition of contraction was determined (up to at most 10^-5 mol/l). For each concentration, the average value of inhibition of contraction was calculated from 2 to 4 preparations. In each case, the concentration of half-maximum inhibition (IC50) per test substance was calculated as characteristic variable.

[3] = molecular target: T5, cloned human NK1 receptors (Homo sapiens, UniProt P25103); assay: Ca2+ measurements using FLIPR for NK1 activity in CHO cells; assay type: cell-based; conditions: substance P 10^-8 M as agonist; compound applied 7 min before; pA2 calculated from IC50
T5 construct: expressed in transfected cells
Text: (§1) The NK receptor is coupled to Gq.
(§2) All steps were done under sterile conditions. […] The results are summarized in table 5: Table 5: pA2 data for NK1 and NK2: […]

NK1 receptors [4] = molecular target: T3, NK1 receptors; assay: NK-1-receptor-antagonistic effectiveness in vivo in anaesthetised guinea pigs (NKA test stimulus, early hypotension); design: from tissue; host or cells: whole anaesthetised guinea pig (in vivo); species or system Pirbright-White guinea pigs; conditions: guinea pig, iv, read-out: ED50 iv after 1 min (cumulative) NK1 (early hypotension)
Text: (§3) The NK-1- and NK-2-antagonistic activities of the test substances were investigated in anaesthetised guinea pigs in each case after intravenous (= i.v.) and oral (= p.o.) administration in vivo. With the present test model it is possible to detect both NK-2-antagonistic effects in three different organ systems (respiratory tracts, colon and circulation) and NK-1-antagonistic effects (rapid drop in blood pressure) in an animal simultaneously.
(§4) Pirbright-White guinea pigs of a body weight of 500-700 g were anaesthetised with ketamine/xylazine (67/13 mg/kg subcutaneously, initial dose, further doses administered as required). The animals were provided with an intravenous catheter in order to administer the substance and an intra-arterial catheter to measure the blood pressure. The animals were artificially ventilated via a tracheal cannula and the respiratory pressure was recorded by means of a pressure transducer. A balloon was introduced into the distal colon of the animals for manometric recording of colon motility by means of a pressure transducer. Blood pressure, heart rate, respiratory pressure and colonic pressure were measured continuously for each animal and plotted on a recorder and by means of a digital data-processing system. […] The second phase of delayed hypotension (= phase of maximum hypotension after 2-5 min.) on the other hand is mediated via NK-2 receptors, since they can be blocked by specific NK-2 receptor antagonists. […] Table 6: NK-1- and NK-2-receptor-antagonistic effective-ness of the test substances of Formula I on guinea pigs in vivo after intravenous administration
(§5) These ED50 values obtained from cumulative dose effect curves are plotted in table 6.
(§6) The antagonistic effects of the test substances were then determined as "area under the curve" ("AUC") over the investigation period after administration of the test substances (1 - 180 min after administration) and the ED50 values after oral administration obtained therefrom were plotted in table 7. Table 7: NK-1- and NK-2-receptor-antagonistic effective-ness of the test substances of Formula I on guinea pigs in vivo after oral administration

[5] = molecular target: T6, cloned human NK2 receptors (Homo sapiens, UniProt P21452); assay: Ca2+ measurements using FLIPR for NK2 activity in CHO cells; assay type: cell-based; conditions: NKA 10^-7 M as agonist; compound applied 7 min before; pA2 calculated from IC50
T6 construct: expressed in transfected cells
T6 sequence (P21452 1-398): T1 sequence (P21452 1-398)
Text: as §1, §2

NK2 receptors [6] = molecular target: T4, NK2 receptors; assay: NK-2-receptor-antagonistic effectiveness in vivo in anaesthetised guinea pigs (NKA test stimulus: late hypotension, bronchoconstriction, colonic pressure); design: from tissue; host or cells: whole anaesthetised guinea pig (in vivo); species or system Pirbright-White guinea pigs; conditions: guinea pig, iv
Text: as §3, §4, §5, §6

[7] = read-out: ED50 iv after 1 min (cumulative) NK2 (broncho-constriction)
[8] = read-out: ED50 iv after 1 min (cumulative) NK2 (colonic motility)
[9] = read-out: ED50 iv after 1 min (cumulative) NK2 (late hypotension)

T2 sequence (P25103 whole entry): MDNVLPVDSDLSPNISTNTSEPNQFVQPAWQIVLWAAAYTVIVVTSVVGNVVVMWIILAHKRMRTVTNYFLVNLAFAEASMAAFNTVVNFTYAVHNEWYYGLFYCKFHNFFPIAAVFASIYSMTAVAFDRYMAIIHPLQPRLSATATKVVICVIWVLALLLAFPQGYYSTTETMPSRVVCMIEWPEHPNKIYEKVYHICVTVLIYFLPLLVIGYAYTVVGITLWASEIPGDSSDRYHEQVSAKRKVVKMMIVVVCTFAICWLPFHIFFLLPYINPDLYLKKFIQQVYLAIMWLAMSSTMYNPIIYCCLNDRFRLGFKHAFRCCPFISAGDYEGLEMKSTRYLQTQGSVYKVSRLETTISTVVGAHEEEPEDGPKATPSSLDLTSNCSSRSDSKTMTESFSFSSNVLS
T3 sequence (P30547 whole entry): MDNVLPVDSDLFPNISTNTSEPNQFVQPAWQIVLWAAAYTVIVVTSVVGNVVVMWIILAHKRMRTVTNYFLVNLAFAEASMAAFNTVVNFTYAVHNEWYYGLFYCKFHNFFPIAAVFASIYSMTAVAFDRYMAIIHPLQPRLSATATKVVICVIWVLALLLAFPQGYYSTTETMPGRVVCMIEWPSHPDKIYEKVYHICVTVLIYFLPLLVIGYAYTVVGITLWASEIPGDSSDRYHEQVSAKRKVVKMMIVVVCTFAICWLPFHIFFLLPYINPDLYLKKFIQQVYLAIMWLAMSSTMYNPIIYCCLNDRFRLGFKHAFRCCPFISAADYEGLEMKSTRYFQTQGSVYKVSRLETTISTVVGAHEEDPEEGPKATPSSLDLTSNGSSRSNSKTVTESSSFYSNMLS
T5 sequence (P25103 whole entry): as the sequence (P25103 whole entry) above

| SMILES | Ki (human NK2 receptors) [nM] | Ki (human NK1 receptors) [nM] | EC50 (NK1 receptors [1]) [nM] | IC50 (NK2 receptors [2]) [nM] | Kb [3] [nM] | ED50 (NK1 receptors [4]) [µmol/kg] | Kb [5] [nM] | ED50 (NK2 receptors [6]; [7]) [µmol/kg] | ED50 (NK2 receptors [6]; [8]) [µmol/kg] | ED50 (NK2 receptors [6]; [9]) [µmol/kg] |
| --- | --- | --- | --- | --- | --- | --- | --- | --- | --- | --- |
| CN(C[C@@H](CCN1CCN([C@@H](c2ccsc2)[C@H](O)[C@@H](O)[C@H](O)CO)CC1)c1ccc(Cl)c(Cl)c1)C(=O)c1cc(C#N)cc2ccccc12 [Compound 5, 3-cyano-N-[(2S)-2-(3,4-dichlorophenyl)-4-{4-[(1S,2S,3R,4R)-2,3,4,5-tetrahydroxy-1-(3-thienyl)pentyl]piperazin-1-yl}butyl]-N-methyl-1-naphthamide] | 50.1 | 1.26 | 0.1 | 31.6 |  |  |  |  |  |  |
| CN(C[C@@H](CCN1CCN([C@@H](c2ccsc2)[C@H](O)CO)CC1)c1ccc(Cl)c(Cl)c1)C(=O)c1cc(C#N)cc2ccccc12 [Compound 8, 3-cyano-N-[(2S)-2-(3,4-dichlorophenyl)-4-{4-[(1S,2S)-2,3-dihydroxy-1-(3-thienyl)propyl]piperazin-1-yl}butyl]-N-methyl-1-naphthamide] | 31.6 | 7.94 |  |  | 0.631 | 0.07 | 1.26 | 1.13 | 0.135 | 0.803 |
| CN(C[C@@H](CCN1CCN([C@@H](c2cccs2)[C@H](O)CO)CC1)c1ccc(Cl)c(Cl)c1)C(=O)c1cc(C#N)cc2ccccc12 [Compound 9, 3-cyano-N-[(2S)-2-(3,4-dichlorophenyl)-4-{4-[(1R,2S)-2,3-dihydroxy-1-(2-thienyl)propyl]piperazin-1-yl}butyl]-N-methyl-1-naphthamide] | 63.1 | 10 |  |  | 3.16 | 0.099 |  | 0.943 | 0.287 | 1.04 |
| CN(C[C@@H](CCN1CCN([C@@H](c2ccsc2)[C@H]2COC(=O)O2)CC1)c1ccc(Cl)c(Cl)c1)C(=O)c1cc(C#N)cc2ccccc12 [Compound 10, 3-cyano-N-[(2S)-2-(3,4-dichlorophenyl)-4-{4-[(S)-[(4S)-2-oxo-1,3-dioxolan-4-yl](3-thienyl)methyl]piperazin-1-yl}butyl]-N-methyl-1-naphthamide] | 100 | 10 |  |  |  | 0.041 |  | 0.045 | 0.109 | 0.04 |
| CN(C[C@@H](CCN1CCN([C@@H](c2ccccc2)[C@H](O)CO)CC1)c1ccc(Cl)c(Cl)c1)C(=O)c1cc(C#N)cc2ccccc12 [Compound 23, 3-cyano-N-[(2S)-2-(3,4-dichlorophenyl)-4-{4-[(1S,2S)-2,3-dihydroxy-1-phenylpropyl]piperazin-1-yl)butyl]-N-methyl-1-naphthamide] |  |  |  |  |  | 0.029 |  | 0.725 | 0.961 | 1.17 |
